Reference: US10131663B2, “Chemical compounds” (AstraZeneca AB, priority 2016, dated 2018)
In brackets after ≈: the same amount, converted by molar mass.

Experiments:
[1] = target: T1, Estrogen Receptor (ERα) in MCF-7 cells (Homo sapiens (Human), UniProt P03372); assay: MCF-7 ER down-regulation assay (immuno-fluorescence); type: cell-based
Procedure, shortened: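 Compounds dispensed acoustically from DMSO stocks onto MCF-7 cells; cells fixed 20 min at room temperature, then automated immunostaining for ERα with overnight incubation at 4° C. Read-out is mean total ER fluorescence intensity normalized to cell number (intensity per cell), with curve fitting for concentration-response values.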

[2] = Thermodynamic solubility (shake-flask); type: physicochemical; conditions: aqueous phosphate buffer, 25 °C, pH 7.4, aqueous buffer, thermodynamic from solid, aqueous phosphate buffer pH 7.4, 24 hours
Procedure, shortened: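 Shake-flask method starting from 10 mM DMSO stocks, which are dried before use. Residue equilibrated 24 h at 25° C. in aqueous phosphate buffer, pH 7.4. Dissolved fraction separated and quantified by UPLC/MS/MS, with QC samples in each run.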

[3] = Human plasma protein binding (equilibrium dialysis); type: in vitro ADME; conditions: dialysis 18 hours
Procedure, shortened: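 Fraction unbound (fu %) in human plasma, from LC/MSMS of plasma and buffer sides (7-point plasma calibration) after 18 h rapid equilibrium dialysis. Single determinations, with compounds pooled up to 10 per plasma pool.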

[4] = target: recombinant human Estrogen Receptor alpha ligand binding domain (ER alpha-LBD (GST)) (Homo sapiens (Human), UniProt P03372); assay: ERα binding assay (LanthaScreen TR-FRET competition); conditions: TR-FRET, displacement of Fluormone ES2
Procedure, shortened: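 Competition binding to GST-tagged human ERα ligand-binding domain, read by LanthaScreen TR-FRET: Tb-anti-GST antibody labels the receptor and compounds displace a fluorescent tracer, lowering the signal. IC50 was taken from dose-response curve fitting.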

[5] = target: estrogen receptor (ERα) in CAMA-1 cells (Homo sapiens (Human), UniProt P03372); assay: Western blotting assay, ER down-regulation in CAMA-1; type: cell-based; conditions: 100 nM compound, 48 h, normalised to 100 nM fulvestrant
Description: (§1) Cells were incubated with compounds (100 nM) or vehicle control (0.1% DMSO) for 48 h at 37° C., 5% CO2 before washing once with PBS and lysing with 80 μl lysis buffer (25 mM Tris/HCl, 3 mM EDTA, 3 mM EGTA, 50 mM NaF, 2 mM sodium orthovanadate, 0.27 M sucrose, 10 mM β-glycerophosphate, 5 mM sodium pyrophosphate, 0.5% TritonX-100, pH 6.8) on ice.
(§2) Samples were boiled for 10 min at 95° C. and then frozen at −20° C. until ready for use.
(§3) The blot was stained with Ponceau S (P7170, Sigma) and cut according to appropriate molecular weight markers.
(§4) Membranes were blocked for 1 hour at room temp in 5% Marvel (w/v) in phosphate-buffered saline containing 0.05% Tween™ 20 (PBS/Tween). Blots were then incubated with anti-ERα (SP1) rabbit monoclonal antibody (Thermofisher) diluted 1:1000 at 4° C. overnight (with gentle shaking) followed by several washes with PBS/Tween. […] All antibodies were made up in 5% Marvel (w/v) in PBS/Tween.
(§5) Down-regulation of the ERα receptor was normalised to the vehicle control (0% down-regulation) and the 100 nM fulvestrant control (100% down-regulation) run within the same gel.

[6] = target: T1, Estrogen Receptor (ERα) in MCF-7 cells; assay: Western blotting assay, ER down-regulation in MCF-7; type: cell-based; conditions: 100 nM compound, 48 h, normalised to 100 nM fulvestrant
Description: as §1, §2, §3, §4, §5

Chain of recombinant human Estrogen Receptor alpha ligand binding domain (ER alpha-LBD (GST)) (P03372 307-554): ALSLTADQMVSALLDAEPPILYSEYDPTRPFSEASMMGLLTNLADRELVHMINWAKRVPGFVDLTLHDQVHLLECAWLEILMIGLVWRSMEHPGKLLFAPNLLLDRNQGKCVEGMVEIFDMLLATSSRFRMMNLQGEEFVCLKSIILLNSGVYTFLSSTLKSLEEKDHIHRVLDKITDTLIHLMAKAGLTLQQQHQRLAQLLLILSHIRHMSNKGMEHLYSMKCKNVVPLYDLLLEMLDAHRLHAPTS
T1 sequence (P03372 whole entry): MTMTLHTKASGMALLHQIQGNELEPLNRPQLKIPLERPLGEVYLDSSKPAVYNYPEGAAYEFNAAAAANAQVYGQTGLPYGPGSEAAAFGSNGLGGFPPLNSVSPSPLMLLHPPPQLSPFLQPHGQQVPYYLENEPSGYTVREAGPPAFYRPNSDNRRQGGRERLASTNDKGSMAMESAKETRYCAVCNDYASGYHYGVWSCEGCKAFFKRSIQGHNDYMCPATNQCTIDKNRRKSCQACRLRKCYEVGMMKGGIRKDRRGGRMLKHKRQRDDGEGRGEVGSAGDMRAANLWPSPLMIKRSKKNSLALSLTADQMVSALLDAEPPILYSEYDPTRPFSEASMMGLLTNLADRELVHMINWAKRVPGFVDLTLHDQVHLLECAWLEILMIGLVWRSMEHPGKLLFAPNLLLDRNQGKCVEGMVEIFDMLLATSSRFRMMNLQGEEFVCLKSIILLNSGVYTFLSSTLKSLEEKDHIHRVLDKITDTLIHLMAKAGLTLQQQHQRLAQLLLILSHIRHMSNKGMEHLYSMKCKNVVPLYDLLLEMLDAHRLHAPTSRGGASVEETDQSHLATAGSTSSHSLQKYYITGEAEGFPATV
Chain of estrogen receptor (ERα) in CAMA-1 cells (P03372 whole entry): as above

| Structure (SMILES) | IC50 [1] | solubility at 24 h [2] | Human plasma protein binding (% free) [3] | IC50 [4] | CAMA1 Western % ER deg vs Fv [5] | MCF7 Western % ER deg vs Fv [6] |
| --- | --- | --- | --- | --- | --- | --- |
| COCC(F)(F)CN1[C@H](c2ccc(NC3CN(CCCF)C3)cc2OC)c2ccc3[nH]ncc3c2C[C@H]1C [Example 1, N-(4-((6S,8R)-7-(2,2-difluoro-3-methoxypropyl)-8-methyl-6,7,8,9-tetrahydro-3H-pyrazolo[4,3-f]isoquinolin-6-yl)-3-methoxyphenyl)-1-(3-fluoropropyl)azetidin-3-amine] | 0.1 nM | 379 µM (≈ 201 µg/mL) | 8.3 % free | 3.7 nM | 92% | 91% |
| COCC(F)(F)CN1[C@H](c2ccc(NC3CN(CCCF)C3)cn2)c2ccc3[nH]ncc3c2C[C@H]1C [Example 2, 6-((6S,8R)-7-(2,2-difluoro-3-methoxypropyl)-8-methyl-6,7,8,9-tetrahydro-3H-pyrazolo[4,3-f]isoquinolin-6-yl)-N-(1-(3-fluoropropyl)azetidin-3-yl)pyridin-3-amine] | 3.1 nM | 217 µM (≈ 109 µg/mL) | 28 % free | 2.8 nM | 95% | 93% |
| C[C@@H]1Cc2c(ccc3[nH]ncc23)[C@@H](c2ccc(NC3CN(CCCF)C3)cn2)N1CC1(F)CC1 [Example 3, 6-((6S,8R)-7-((1-fluorocyclopropyl)methyl)-8-methyl-6,7,8,9-tetrahydro-3H-pyrazolo[4,3-f]isoquinolin-6-yl)-N-(1-(3-fluoropropyl)azetidin-3-yl)pyridin-3-amine] | 0.64 nM | > 941 µM | 26 % free | 6.5 nM | 102% | 90% |
| COc1cc(NC2CN(CCCF)C2)ccc1[C@@H]1c2ccc3[nH]ncc3c2C[C@@H](C)N1CC1(F)CC1 [Example 6, N-(4-((6S,8R)-7-((1-fluorocyclopropyl)methyl)-8-methyl-6,7,8,9-tetrahydro-3H-pyrazolo[4,3-f]isoquinolin-6-yl)-3-methoxyphenyl)-1-(3-fluoropropyl)azetidin-3-amine] | 0.35 nM | > 947 µM | 34 % free | 8.8 nM | 84% | 89% |
| C[C@@H]1Cc2c(ccc3[nH]ncc23)[C@@H](c2ccc(NC3CN(CCCF)C3)cn2)N1CC(F)(F)CO [Example 16, 2,2-difluoro-3-((6S,8R)-6-(5-((1-(3-fluoropropyl)azetidin-3-yl)amino)pyridin-2-yl)-8-methyl-3,6,8,9-tetrahydro-7H-pyrazolo[4,3-f]isoquinolin-7-yl)propan-1-ol] | 0.54 nM | 982 µM (≈ 480 µg/mL) | 64 % free | 6.9 nM | 105% | 104% |
| C[C@@H]1Cc2c(ccc3[nH]ncc23)[C@@H](c2ccc(NC3CN(CCCF)C3)cn2)N1CC(F)(F)F [Example 17, N-(1-(3-fluoropropyl)azetidin-3-yl)-6-((6S,8R)-8-methyl-7-(2,2,2-trifluoroethyl)-6,7,8,9-tetrahydro-3H-pyrazolo[4,3-f]isoquinolin-6-yl)pyridin-3-amine] | – | 833 µM (≈ 397 µg/mL) | 23 % free | – | 96% | 92% |
| C[C@@H]1Cc2c(ccc3[nH]ncc23)[C@@H](c2ncc(NC3CN(CCCF)C3)cc2F)N1CC1(F)CC1 [Example 18, 5-fluoro-6-((6S,8R)-7-((1-fluorocyclopropyl)methyl)-8-methyl-6,7,8,9-tetrahydro-3H-pyrazolo[4,3-f]isoquinolin-6-yl)-N-(1-(3-fluoropropyl)azetidin-3-yl)pyridin-3-amine] | 0.42 nM | 910 µM (≈ 441 µg/mL) | 34 % free | 29 nM | 95% | 103% |
| COc1cc(NC2CN(CCCF)C2)ccc1[C@@H]1c2ccc3[nH]ncc3c2C[C@@H](C)N1CC(C)(F)F [Example 19, N-(4-((6S,8R)-7-(2,2-difluoropropyl)-8-methyl-6,7,8,9-tetrahydro-3H-pyrazolo[4,3-f]isoquinolin-6-yl)-3-methoxyphenyl)-1-(3-fluoropropyl)azetidin-3-amine] | 0.063 nM | 152 µM (≈ 76.2 µg/mL) | 4.3 % free | 2.6 nM | 94% | 92% |
| COc1cc(NC2CN(CCCF)C2)ccc1[C@@H]1c2ccc3[nH]ncc3c2C[C@@H](C)N1CC(F)F [Example 21, N-(4-((6S,8R)-7-(2,2-difluoroethyl)-8-methyl-6,7,8,9-tetrahydro-3H-pyrazolo[4,3-f]isoquinolin-6-yl)-3-methoxyphenyl)-1-(3-fluoropropyl)azetidin-3-amine] | 0.098 nM | 634 µM (≈ 309 µg/mL) | 12 % free | 2.1 nM | 101% | 99% |
| C[C@@H]1Cc2c(ccc3[nH]ncc23)[C@@H](c2ccc(NC3CN(CCCF)C3)cn2)N1CC(F)F [Example 25, 6-((6S,8R)-7-(2,2-difluoroethyl)-8-methyl-6,7,8,9-tetrahydro-3H-pyrazolo[4,3-f]isoquinolin-6-yl)-N-(1-(3-fluoropropyl)azetidin-3-yl)pyridin-3-amine] | 0.33 nM | 964 µM (≈ 442 µg/mL) | 40 % free | 4.1 nM | 96% | 98% |
| C[C@@H]1Cc2c(ccc3[nH]ncc23)[C@@H](c2ccc(NC3CN(CCCF)C3)cc2)N1CC(F)(F)F [Example 27, 1-(3-Fluoropropyl)-N-(4-((6R,8R)-8-methyl-7-(2,2,2-trifluoroethyl)-6,7,8,9-tetrahydro-3H-pyrazolo[4,3-f]isoquinolin-6-yl)phenyl)azetidin-3-amine] | 0.05 nM | 229 µM (≈ 109 µg/mL) | 3.8 % free | 0.81 nM | 108% | 110% |
| COc1cc(NC2CN(CCCF)C2)ccc1[C@@H]1c2ccc3[nH]ncc3c2C[C@@H](C)N1CC(F)(F)F [Example 28, 1-(3-fluoropropyl)-N-(3-methoxy-4-((6S,8R)-8-methyl-7-(2,2,2-trifluoroethyl)-6,7,8,9-tetrahydro-3H-pyrazolo[4,3-f]isoquinolin-6-yl)phenyl)azetidin-3-amine] | 0.065 nM | 150 µM (≈ 75.8 µg/mL) | 6 % free | 5.7 nM | 110% | 95% |
| C[C@@H]1Cc2c(ccc3[nH]ncc23)[C@@H](c2ncc(NC3CN(CCCF)C3)cc2F)N1CC(F)(F)F [Example 30, 5-fluoro-N-(1-(3-fluoropropyl)azetidin-3-yl)-6-((6S,8R)-8-methyl-7-(2,2,2-trifluoroethyl)-6,7,8,9-tetrahydro-3H-pyrazolo[4,3-f]isoquinolin-6-yl)pyridin-3-amine] | 0.28 nM | 754 µM (≈ 373 µg/mL) | 16 % free | 1.8 nM | 98% | 96% |
| C[C@@H]1Cc2c(ccc3[nH]nc(F)c23)[C@@H](c2ncc(NC3CN(CCCF)C3)cc2F)N1CC(F)(F)F [Example 33, 5-Fluoro-6-((6S,8R)-1-fluoro-8-methyl-7-(2,2,2-trifluoroethyl)-6,7,8,9-tetrahydro-3H-pyrazolo[4,3-f]isoquinolin-6-yl)-N-(1-(3-fluoropropyl)azetidin-3-yl)pyridin-3-amine] | 0.1 nM | 466 µM (≈ 239 µg/mL) | 5.4 % free | 1.4 nM | 102% | 98% |
